Here are results for three compounds from patent publication US6248738A, “Isoquinolines as urokinase inhibitors” (Pfizer Inc., priority 1997, dated 2001).

As a reminder, the Ki is the dissociation constant of the complex between target and ligand, obtained from inhibition or displacement.

One assay deals with tumour metastasis. The settings on record: literature; cited from earlier work.
Assay [1] concerns angiogenesis/capillary network formation. The settings on record: literature; cited from earlier work.
In a further assay the target is human tPA (Homo sapiens, UniProt P00750). Description: Inhibition of human tPA (substrate S-2288, tPA stimulator). The settings on record: selectivity for uPA over human tPA. In kind it is biochemical.
A further assay concerns the target T1, human urokinase (Homo sapiens, UniProt P00749).
T1 construct: the urokinase used was HMWT Human Urokinase (Calbiochem 672081); purchased Calbiochem 672081
Description: Inhibition of human urokinase (HMWT human urokinase, substrate S-2444). In kind it is biochemical. The settings on record: S-2444 substrate, read-out: Ki uPA.

Another assay has as its target human plasmin (Homo sapiens, UniProt P00747). The assay is described as follows: Inhibition of human plasmin (substrate Chromozym-PL). The settings on record: selectivity for uPA over human plasmin. It is filed as biochemical.

Sequence of human tPA (P00750 33-562): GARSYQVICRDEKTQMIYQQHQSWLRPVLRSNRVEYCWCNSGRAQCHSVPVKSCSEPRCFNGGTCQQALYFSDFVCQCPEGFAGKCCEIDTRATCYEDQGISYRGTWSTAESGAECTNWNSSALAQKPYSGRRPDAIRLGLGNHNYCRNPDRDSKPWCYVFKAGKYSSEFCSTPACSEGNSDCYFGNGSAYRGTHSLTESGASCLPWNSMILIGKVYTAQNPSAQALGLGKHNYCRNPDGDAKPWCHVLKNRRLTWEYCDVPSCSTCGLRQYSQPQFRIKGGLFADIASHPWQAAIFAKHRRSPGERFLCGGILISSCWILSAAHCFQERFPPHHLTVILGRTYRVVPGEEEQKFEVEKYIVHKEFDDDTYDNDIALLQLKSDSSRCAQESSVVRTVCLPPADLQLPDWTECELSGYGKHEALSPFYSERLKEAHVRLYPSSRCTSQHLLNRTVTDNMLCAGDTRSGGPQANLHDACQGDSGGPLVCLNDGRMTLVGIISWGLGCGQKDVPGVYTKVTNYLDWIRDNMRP
Sequence of human plasmin (P00747 97-810): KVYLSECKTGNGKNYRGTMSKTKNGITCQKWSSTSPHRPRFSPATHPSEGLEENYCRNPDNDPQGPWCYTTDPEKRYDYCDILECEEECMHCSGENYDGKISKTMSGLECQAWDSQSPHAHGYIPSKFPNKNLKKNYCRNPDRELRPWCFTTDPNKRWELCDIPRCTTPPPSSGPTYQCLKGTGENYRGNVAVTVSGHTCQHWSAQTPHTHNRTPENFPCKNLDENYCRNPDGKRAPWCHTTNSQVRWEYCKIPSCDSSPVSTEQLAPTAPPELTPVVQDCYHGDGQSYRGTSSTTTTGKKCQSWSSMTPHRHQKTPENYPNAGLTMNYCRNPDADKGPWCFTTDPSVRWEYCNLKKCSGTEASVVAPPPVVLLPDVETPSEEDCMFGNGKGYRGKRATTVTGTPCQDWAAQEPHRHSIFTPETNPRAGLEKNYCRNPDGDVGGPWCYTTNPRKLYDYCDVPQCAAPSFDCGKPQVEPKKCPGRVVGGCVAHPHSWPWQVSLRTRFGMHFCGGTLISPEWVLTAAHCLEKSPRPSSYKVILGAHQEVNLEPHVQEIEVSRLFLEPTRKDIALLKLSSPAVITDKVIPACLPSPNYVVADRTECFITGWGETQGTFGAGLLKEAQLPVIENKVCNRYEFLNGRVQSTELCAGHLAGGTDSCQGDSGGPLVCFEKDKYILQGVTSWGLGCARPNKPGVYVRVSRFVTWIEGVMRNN

With `N=C(N)NC(=O)c1nc(Cl)c(N)nc1N` [Amiloride], the “inhibition of tumour metastasis/invasion in vivo” value with tumour metastasis is listed as “inhibit tumour metastasis in vivo”. The “inhibition of angiogenesis/capillary network formation in vitro” value in assay [1] was “angiogenesis/capillary network formation in vitro”.

`NC(N)=Nc1nccc2ccc(/C=C/c3ccccc3)cc12` [Example 19]: the “vs. tPA* (selectivity figures)” value on human tPA worked out at 88. In addition, the Ki at human urokinase turned out to be 400 nM. Also, on human plasmin, the “vs. plasmin* (selectivity figures)” value amounted to 68.

As to `NC(N)=Nc1nccc2ccc(Br)cc12` [Example 15], the “vs. tPA* (selectivity figures)” value at human tPA worked out at 380. For the same compound, the Ki at human urokinase was determined as 249 nM. Also, the “vs. plasmin* (selectivity figures)” value on human plasmin stood at 204.
